# Laboratory results reported in ChEMBL document CHEMBL1144231, “Discovery of pyrimidine benzimidazoles as Lck inhibitors: part I” (Bioorg Med Chem Lett, 2008).
# Target: Tyrosine-protein kinase Lck (Homo sapiens, UniProt P06239)
# Assay: Inhibition of Lck by lance assay
# Chain of Tyrosine-protein kinase Lck (P06239 whole entry): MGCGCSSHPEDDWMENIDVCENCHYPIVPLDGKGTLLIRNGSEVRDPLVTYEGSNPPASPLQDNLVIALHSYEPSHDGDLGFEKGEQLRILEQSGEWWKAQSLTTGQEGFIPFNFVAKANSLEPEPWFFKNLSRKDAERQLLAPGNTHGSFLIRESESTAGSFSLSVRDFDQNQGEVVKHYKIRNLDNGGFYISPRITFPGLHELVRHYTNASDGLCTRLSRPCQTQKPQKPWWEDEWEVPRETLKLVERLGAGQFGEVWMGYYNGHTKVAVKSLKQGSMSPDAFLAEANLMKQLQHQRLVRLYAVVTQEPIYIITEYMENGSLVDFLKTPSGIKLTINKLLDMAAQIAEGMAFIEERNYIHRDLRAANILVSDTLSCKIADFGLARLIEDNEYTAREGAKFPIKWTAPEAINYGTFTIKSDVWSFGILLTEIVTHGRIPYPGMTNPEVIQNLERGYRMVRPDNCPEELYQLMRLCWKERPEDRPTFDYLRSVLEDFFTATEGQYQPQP
row,IC50 [nM],Compound
1,14,Cc1cccc(Cl)c1Nc1nc2ccccc2n1-c1cc(Nc2cc(CN3CCOCC3)ccn2)ncn1
2,> 2500,Cc1cccc(Cl)c1Nc1nc2ccccc2n1-c1cc(Cl)ncn1
3,789,CCN(CC)CCCCNc1cc(-n2c(Nc3c(C)cccc3Cl)nc3ccccc32)ncn1
4,1360,Cc1cc(C)c(Nc2nc3ccccc3n2-c2cc(N)ncn2)c(Br)c1
5,1780,Cc1cc(C)c(Nc2nc3ccccc3n2-c2cc(N)ncn2)c(C)c1
6,> 2500,Cc1cccc(Cl)c1Nc1nc2ccccc2n1-c1cc(NN2CCOCC2)ncn1
7,> 2500,Cc1cccc(Cl)c1Nc1nc2ccccc2n1-c1cc(N2CCOCC2)ncn1
8,2090,Cc1cccc(Cl)c1Nc1nc2ccccc2n1-c1ccncn1
9,119,Cc1cccc(Cl)c1Nc1nc2ccccc2n1-c1cc(Nc2ncnc(NCCN3CCOCC3)c2C)ncn1

row,Compound,IC50 [nM]
1,Cc1cccc(Cl)c1Nc1nc2ccccc2n1-c1cc(N)ncn1,514
2,Cc1nc(NCCN2CCOCC2)cc(Nc2cc(-n3c(Nc4c(C)cccc4Cl)nc4ccccc43)ncn2)n1,5
3,Cc1nc(Nc2cc(-n3c(Nc4c(C)cccc4Cl)nc4ccccc43)ncn2)cc(N2CCN(CCO)CC2)n1,25
4,Cc1cccc(Cl)c1Nc1nc2ccccc2n1-c1cc(Nc2ccc(CCN3CCOCC3)cn2)ncn1,31
